Experimental data taken from patent US20050107438A1, “Pharmaceutical composition comprising 3-[(2-{[4-(Hexyloxycarbonylaminoiminomethyl) phenylamino]-methyl}-1-methyl-1H-benzimidazol-5-carbonyl)-pyridin-2-yl-amino]-propionic acid ethyl ester or a salt therefore” (Boehringer Ingelheim International GmbH, priority 2003, published 2005).

Experiment: Solubility of the compound in water as a function of pH
Type: physicochemical
Text: Therefore, pantoprazole which serves to raise the pH of the stomach was given to the test subjects in one branch of treatment in the clinical trials.

In the case of `CCCCCCOC(=O)NC(=N)c1ccc(NCc2nc3cc(C(=O)N(CCC(=O)OCC)c4ccccn4)ccc3n2C)cc1` [compound of formula (I), ethyl 3-[(2-{[4-(hexyloxycarbonylaminoiminomethyl)phenylamino]methyl}-1-methyl-1H-benzimidazole-5-carbonyl)pyridin-2-ylamino]propionate], the solubility in water (low pH values) was “dissolves relatively easily” and the solubility in water (pH levels above 5, definition of the European Pharmacopoeia) was “virtually insoluble”.
